Source: US8362000B2, “Azetidinyl diamides as monoacylglycerol lipase inhibitors” (Janssen Pharmaceutica NV, priority 2009, dated 2013)
Numbering of substitutions follows the chain as printed. Where two headings read alike, the source gives them in different places.

Key:
MGL = target: T1, MGL (Rattus norvegicus, UniProt Q8R431); assay: 2-AG accumulation assay in rat brain homogenate; format: biochemical; settings: rat brain homogenate, 2-AG accumulation as percent of vehicle; for 2-AG accumulation, % of vehicle control at 0.1 µM: compound 0.1 μM, read-out: Rat Brain 2AG % VehCntrl (%) @ 0.1 μM; for 2-AG accumulation, % of vehicle control at 1 µM: compound 1 μM, read-out: Rat Brain 2AG % VehCntrl (%) @ 1 μM; for 2-AG accumulation, % of vehicle control at 10 µM: compound 10 μM, read-out: Rat Brain 2AG % VehCntrl (%) @ 10 μM; for 2-AG accumulation, % of vehicle control at 0.01 µM: compound 0.01 μM, read-out: Rat Brain 2AG % VehCntrl (%) @ 0.01 μM
T1 construct: one g rat brain was homogenized using a Polytron homogenizer; from tissue; host or cells: rat brain homogenate
T1 sequence (Q8R431 1-303): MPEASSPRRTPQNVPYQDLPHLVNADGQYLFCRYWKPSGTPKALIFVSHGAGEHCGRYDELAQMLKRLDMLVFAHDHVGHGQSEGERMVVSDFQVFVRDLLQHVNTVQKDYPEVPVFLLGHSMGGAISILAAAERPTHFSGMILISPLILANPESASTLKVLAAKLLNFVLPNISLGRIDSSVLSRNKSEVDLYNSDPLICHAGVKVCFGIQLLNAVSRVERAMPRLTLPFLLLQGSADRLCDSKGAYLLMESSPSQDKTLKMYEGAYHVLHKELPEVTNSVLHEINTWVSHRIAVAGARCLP

mutant MGL = target: T2, mutant MGL (Homo sapiens, UniProt Q99685, L169S/L176S); assay: MGL ThermoFluor assay - mutant; format: binding
T2 sequence (Q99685 1-303 L169S/L176S): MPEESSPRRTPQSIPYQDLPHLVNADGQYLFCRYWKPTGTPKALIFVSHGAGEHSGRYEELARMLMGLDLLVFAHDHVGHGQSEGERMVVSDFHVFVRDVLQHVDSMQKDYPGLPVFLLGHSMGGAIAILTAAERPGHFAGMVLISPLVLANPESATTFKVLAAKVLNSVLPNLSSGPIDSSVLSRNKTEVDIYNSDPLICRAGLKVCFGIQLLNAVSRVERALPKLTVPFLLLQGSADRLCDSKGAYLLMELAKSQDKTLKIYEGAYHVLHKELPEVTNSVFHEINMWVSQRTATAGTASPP
Protocol: The ThermoFluor (TF) assay is a 384-well plate-based binding assay that measures thermal stability of proteins^1,2. […] TF dye used in all experiments was 1,8-ANS (Invitrogen: A-47). Final TF assay conditions used for MGL studies were 0.07 mg/ml of mutant MGL, 100 μM ANS, 200 mM NaCl, 0.001% Tween-20 in 50 mM PIPES (pH=7.0).
Screening compound plates contained 100% DMSO compound solutions at a single concentration. […] Columns 12 and 24 were used as DMSO reference and contained no compound. […] Following compound dispension, protein and dye solutions were added to achieve the final assay volume of 3 μL.
Bar-coded assay plates were robotically loaded onto a thermostatically controlled PCR-type thermal block and then heated from 40 to 90° C. degrees at a ramp-rate of 1° C./min for all experiments. Fluorescence was measured by continuous illumination with UV light (Hamamatsu LC6), supplied via fiber optics and filtered through a band-pass filter (380-400 nm; >60D cutoff). Fluorescence emission of the entire 384-well plate was detected by measuring light intensity using a CCD camera (Sensys, Roper Scientific) filtered to detect 500±25 nm, resulting in simultaneous and independent readings of all 384 wells. A single image with 20-sec exposure time was collected at each temperature, and the sum of the pixel intensity in a given area of the assay plate was recorded vs temperature and fit to standard equations to yield the Tm^1. • 1.
For some experiments, quantitative NMR spectroscopy (qNMR) was used to measure concentration of the initial 100% DMSO compound solutions and, using the same fitting method, qKd values were determined

[1] = system: CFA-induced paw radiant heat hypersensitivity; assay: CFA-induced paw radiant heat hypersensitivity; format: in vivo, rat; settings: Rattus norvegicus, po, 30 mg/kg p.o., HPβCD, last time point 180 or 300 min
[2] = target: T3, purified wild type MGL (wt-MGLL 6H-11-313) (Homo sapiens, UniProt Q99685)
T3 sequence (Q99685 1-303): T2 sequence (Q99685 1-303 L169S/L176S) with S169L, S176L

[3] = ThermoFluor thermal stability binding assay, read-out: MGL mutant ThermoFluor Kd
[4] = group mean values, read-out: CFA thermal hypersensitivity Method 1: peak % reversal
[5] = individual animal values, read-out: CFA thermal hypersensitivity Method 2: peak % reversal
[6] = ThermoFluor concentration-response, read-out: MGL mutant ThermoFluor Kd

| Structure (SMILES) | 2-AG accumulation, % of vehicle control at 0.1 µM (MGL) | 2-AG accumulation, % of vehicle control at 1 µM (MGL) | 2-AG accumulation, % of vehicle control at 10 µM (MGL) | Kd (mutant MGL; [3]) | IC50 [2] | Kd (mutant MGL; [6]) | Kd (mutant MGL; ThermoFluor, compound concentration measured by qNMR, read-out: MGL mutant ThermoFluor qKd (μM) (using qNMR conc.)) | 2-AG accumulation, % of vehicle control at 0.01 µM (MGL) | inhibition in vivo at 30 mg/kg [1, 4] | inhibition in vivo at 30 mg/kg [1, 5] |
| --- | --- | --- | --- | --- | --- | --- | --- | --- | --- | --- |
| O=C(c1ccc(OCc2ccccn2)c(Cl)c1)N1CC(N2CCN(C(=O)c3nccs3)CC2)C1 [Cpd 407, 1-(1-{[3-Chloro-4-(pyridine-2-ylmethoxy)phenyl]carbon-yl}azetidin-3-yl)-4-(1,3-thiazol-2-ylcarbonyl)piperazine] | 127% | 441% | 743% | 0.0988 µM | 50.6 nM | – | – | – | 1.6% | 1.4% |
| O=C(c1cscn1)N1CCN(C2CN(C(=O)c3sc4cc(Br)ccc4c3Cl)C2)CC1 [Cpd 333, 1-{1-[(6-Bromo-3-chloro-1-benzothiophen-2-yl)carbonyl]azetidin-3-yl}-4-(1,3-thiazol-4-ylcarbonyl)piperazine] | – | 291% | – | 0.0039 µM | 16.2 nM | – | – | – | 27.7% | – |
| O=C(c1ccccc1)N1CCN(C2CN(C(=O)c3ccc4c(ccn4-c4ccc(F)c(F)c4)c3)C2)CC1 [Cpd 571, 1-(3,4-Difluorophenyl)-5-({3-[4-(phenylcarbonyl)piperazin-1-yl]azetidin-1-yl}carbonyl)-1H-indole] | – | 307% | – | 0.046 µM | 28 nM | – | 0.08 µM | – | 133% | – |
| O=C(c1ccc(-c2ccccc2)cc1)N1CC(N2CCN(C(=O)c3cscn3)CC2)C1 [Cpd 7, 1-[1-(Biphenyl-4-ylcarbonyl)azetidin-3-yl]-4-(1,3-thiazol-4-ylcarbonyl)piperazine] | 216% | 238% | 568% | – | 131 nM | 0.0466 µM | – | – | 77.8% | 76.2% |
| O=C(c1nccs1)N1CCN(C2CN(C(=O)c3ccc(-c4cccc(C(F)(F)F)c4)cc3Cl)C2)CC1 [Cpd 250, 1-(1-{[3-Chloro-3′-(trifluoromethyl)biphenyl-4-yl]carbonyl}azetidin-3-yl)-4-(1,3-thiazol-2-ylcarbonyl)piperazine] | 472% | – | – | 0.0017 µM | < 5 nM | – | – | 180% | 41.7% | 41.9% |
| O=C(c1cscn1)N1CCN(C2CN(C(=O)c3cc4ccc(C(F)(F)F)cc4s3)C2)CC1 [Cpd 337] | 166% | 272% | 671% | 0.0498 µM | 13 nM | – | – | 103% | 14.3% | 17.6% |
| Cc1cc(-c2cccc(C(F)(F)F)c2)ccc1C(=O)N1CC(N2CCN(C(=O)c3nccs3)CC2)C1 [Cpd 239, 1-(1-{[3-Methyl-3′-(trifluoromethyl)biphenyl-4-yl]carbonyl}azetidin-3-yl)-4-(1,3-thiazol-2-ylcarbonyl)piperazine] | 290% | – | – | 0.005 µM | 10 nM | – | – | 153% | 81.8% | 87.5% |
| O=C(c1nccs1)N1CCN(C2CN(C(=O)c3sc4cc(C(F)(F)F)ccc4c3Cl)C2)CC1 [Cpd 324, 1-(1-{[3-Chloro-6-(trifluoromethyl)-1-benzothiophen-2-yl]carbon-yl}azetidin-3-yl)-4-(1,3-thiazol-2-ylcarbonyl)piperazine] | 941% | – | – | 0.0004 µM | < 5 nM | – | – | – | 48.7% | 55.8% |
| O=C(c1cscn1)N1CCN(C2CN(C(=O)c3sc4cc(C(F)(F)F)ccc4c3F)C2)CC1 [Cpd 653] | – | 861% | – | – | 7 nM | 0.011 µM | – | – | -10.7% | – |
| O=C(c1ccc(Oc2cccc(Cl)c2)c(F)c1)N1CC(N2CCN(C(=O)c3cscn3)CC2)C1 [Cpd 662] | – | 274% | – | – | 11 nM | 0.1 µM | – | – | 21% | 24% |
| O=C(c1ccccc1)N1CCN(C2CN(C(=O)c3cc4ccc(C(F)(F)F)cc4s3)C2)CC1 [Cpd 325, 1-(Phenylcarbonyl)-4-(1-{[6-(trifluoromethyl)-1-benzothiophen-2-yl]carbonyl}azetidin-3-yl)piperazine] | – | 478% | – | 0.0927 µM | 69.5 nM | – | – | – | 62.1% | 63.1% |
| O=C(c1cscn1)N1CCN(C2CN(C(=O)c3sc4cc(-c5ccccc5)ccc4c3Cl)C2)CC1 [Cpd 345] | – | 744% | – | 0.0031 µM | < 5 nM | – | – | – | 25% | 26.3% |

Now from value to molecule, other results behind:

| 2-AG accumulation, % of vehicle control at 0.1 µM (MGL) | 2-AG accumulation, % of vehicle control at 1 µM (MGL) | 2-AG accumulation, % of vehicle control at 10 µM (MGL) | Kd (mutant MGL; [3]) | IC50 [2] | Kd (mutant MGL; [6]) | Kd (mutant MGL; ThermoFluor, compound concentration measured by qNMR, read-out: MGL mutant ThermoFluor qKd (μM) (using qNMR conc.)) | 2-AG accumulation, % of vehicle control at 0.01 µM (MGL) | Structure (SMILES) | inhibition in vivo at 30 mg/kg [1, 4] | inhibition in vivo at 30 mg/kg [1, 5] |
| --- | --- | --- | --- | --- | --- | --- | --- | --- | --- | --- |
| – | 506% | – | – | 19 nM | 0.25 µM | – | – | O=C(c1cccc(-c2cccc(F)c2)c1)N1CC(N2CCN(C(=O)c3nccs3)CC2)C1 [Cpd 1124] | 88.1% | – |
| – | 576% | – | – | < 5 nM | 0.008 µM | – | – | O=C(c1ccc2c(cnn2-c2ccccc2)c1)N1CC(N2CCN(C(=O)c3nccs3)CC2)C1 [Cpd 1360, 1-Phenyl-5-({3-[4-(1,3-thiazol-2-ylcarbonyl)piperazin-1-yl]azetidin-1-yl}carbonyl)-1H-indazole] | 40.5% | 40.5% |
| – | 877% | – | – | < 5 nM | 0.015 µM | – | – | O=C(c1ccc2c(ccn2-c2ccc(C(F)(F)F)cc2)c1)N1CCN(C2CN(C(=O)c3nccs3)C2)CC1 [Cpd 1338, 5-({4-[1-(1,3-Thiazol-2-ylcarbonyl)azetidin-3-yl]piperazin-1-yl}carbonyl)-1-[4-(trifluoromethyl)phenyl]-1H-indole] | 86.3% | – |
| – | 319% | – | – | 92 nM | 0.197 µM | – | – | O=C(c1ccc2nc(-c3ccccc3)sc2c1)N1CC(N2CCN(C(=O)c3cscn3)CC2)C1 [Cpd 1187, 2-Phenyl-6-({3-[4-(1,3-thiazol-4-ylcarbonyl)piperazin-1-yl]azetidin-1-yl}carbonyl)-1,3-benzothiazole] | 16.3% | – |
| 198% | 198% | 522% | – | 258 nM | 0.081 µM | – | – | O=C(c1cscn1)N1CCN(C2CN(C(=O)c3ccc(-c4ccccc4)cc3Cl)C2)CC1 [Cpd 1221] | 44.7% | 46.7% |
| – | 878% | – | 0.006 µM | 13 nM | – | – | – | O=C(c1ccc(-c2cccc(C(F)(F)F)c2)c(Cl)c1)N1CC(N2CCN(C(=O)c3cscn3)CC2)C1 [Cpd 1102, 1-(1-{[2-Chloro-3′-(trifluoromethyl)biphenyl-4-yl]carbonyl}azetidin-3-yl)-4-(1,3-thiazol-4-ylcarbonyl)piperazine] | 38% | 45.3% |
